Data reported in ChEMBL document CHEMBL1142463 (Bioorg Med Chem Lett, 2008).

Key:
Phospholipase A2 group V [1] = molecular target: T1, Phospholipase A2 group V (Homo sapiens, UniProt P39877); assay: Inhibition of human sPLA2 group 5
T1 sequence (P39877 whole entry): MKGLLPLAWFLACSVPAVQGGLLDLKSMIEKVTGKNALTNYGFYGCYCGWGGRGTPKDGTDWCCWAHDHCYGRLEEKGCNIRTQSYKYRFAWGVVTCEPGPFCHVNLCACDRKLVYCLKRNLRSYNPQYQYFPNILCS

[2] = molecular target: T2, Group 10 secretory phospholipase A2 (Mus musculus, UniProt Q9QXX3); assay: Inhibition of mouse sPLA2 group 10
T2 sequence (Q9QXX3 whole entry): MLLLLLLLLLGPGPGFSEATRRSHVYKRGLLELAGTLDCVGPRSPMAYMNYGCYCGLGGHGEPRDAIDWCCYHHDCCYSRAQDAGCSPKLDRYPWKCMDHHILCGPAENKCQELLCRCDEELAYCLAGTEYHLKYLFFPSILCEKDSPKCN

[3] = molecular target: T3, Phospholipase A2, membrane associated (Mus musculus, UniProt P31482); assay: Inhibition of mouse sPLA2 group 2A
T3 sequence (P31482 whole entry): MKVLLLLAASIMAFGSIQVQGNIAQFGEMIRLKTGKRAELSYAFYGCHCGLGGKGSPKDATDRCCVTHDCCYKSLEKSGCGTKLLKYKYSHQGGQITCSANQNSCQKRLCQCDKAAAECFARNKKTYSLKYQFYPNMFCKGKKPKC

[4] = molecular target: T4, Phospholipase A2, membrane associated (Homo sapiens, UniProt P14555); assay: Inhibition of human sPLA2 group 2A
T4 sequence (P14555 whole entry): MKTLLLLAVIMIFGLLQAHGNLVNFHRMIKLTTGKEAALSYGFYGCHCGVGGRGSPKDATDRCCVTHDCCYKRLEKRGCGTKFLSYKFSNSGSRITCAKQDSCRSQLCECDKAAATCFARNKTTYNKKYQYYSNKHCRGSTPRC

[5] = molecular target: T5, Group 10 secretory phospholipase A2 (Homo sapiens, UniProt O15496); assay: Inhibition of human sPLA2 group 10
T5 sequence (O15496 whole entry): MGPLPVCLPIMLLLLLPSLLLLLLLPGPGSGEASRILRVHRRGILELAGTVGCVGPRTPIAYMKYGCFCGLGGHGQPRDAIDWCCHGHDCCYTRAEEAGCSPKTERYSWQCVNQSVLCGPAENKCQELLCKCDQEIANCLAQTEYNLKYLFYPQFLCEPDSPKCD

Phospholipase A2 group V [6] = molecular target: T6, Phospholipase A2 group V (Mus musculus, UniProt P97391); assay: Inhibition of mouse sPLA2 group 5
T6 sequence (P97391 whole entry): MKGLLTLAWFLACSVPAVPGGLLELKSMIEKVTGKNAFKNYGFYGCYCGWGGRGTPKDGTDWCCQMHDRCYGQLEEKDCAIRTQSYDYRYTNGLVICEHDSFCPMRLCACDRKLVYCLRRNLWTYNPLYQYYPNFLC

[7] = molecular target: T7, Phospholipase A2, membrane associated (Rattus norvegicus, UniProt P14423); assay: Inhibition of rat sPLA2 group 2A
T7 sequence (P14423 whole entry): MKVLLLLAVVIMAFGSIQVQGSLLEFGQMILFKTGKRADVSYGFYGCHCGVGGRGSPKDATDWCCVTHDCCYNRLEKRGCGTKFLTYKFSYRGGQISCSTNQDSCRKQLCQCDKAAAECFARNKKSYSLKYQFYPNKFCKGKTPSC

[8] = molecular target: Phospholipase A2, membrane associated (Oryctolagus cuniculus, UniProt P14422); assay: Inhibition of rabbit sPLA2 group 2A
Chain of Phospholipase A2, membrane associated (Oryctolagus cuniculus, UniProt P14422) (P14422 whole entry): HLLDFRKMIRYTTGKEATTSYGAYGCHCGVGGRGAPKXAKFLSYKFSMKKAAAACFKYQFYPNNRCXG

| SMILES | IC50 (Phospholipase A2 group V [1]) [nM] | IC50 [2] [nM] | IC50 [3] [nM] | IC50 [4] [nM] | IC50 [5] [nM] | IC50 (Phospholipase A2 group V [6]) [nM] | IC50 [7] [nM] | IC50 [8] [nM] |
| --- | --- | --- | --- | --- | --- | --- | --- | --- |
| Cc1c(O)c(C(=O)Cc2ccccc2)c(O)c(C(=O)Cc2ccccc2)c1O | > 1600 | > 1600 | > 1600 | > 1600 | > 1600 | > 1600 | – | – |
| CCCCCCCCCCCC(=O)c1cc(C(=O)CCCCCCCCCCC)c(O)cc1O | > 1600 | > 1600 | > 1600 | > 1600 | > 1600 | > 1600 | – | – |
| CCCCCCCCCCCC(=O)c1c(O)c(C)c(O)c(C(C)=O)c1O | > 1600 | > 1600 | > 1600 | > 1600 | > 1600 | > 1600 | – | – |
| CCCCCCCCCCCC(=O)c1c(O)c(C(=O)CCCCCCCCCCC)c(O)c(C2CC(c3ccc(O)cc3)Oc3cc(O)ccc32)c1O (stereo not drawn) | – | > 1600 | 30 | – | – | 520 | – | – |
| CCCCCCCCCCCC(=O)c1c(O)cc(O)c(C(=O)CCCCCCCCCCC)c1O [DIDODECANOYLPHLOROGLUCINOL] | 1600 | > 1600 | 110 | 1600 | > 1600 | 1600 | 90 | 10 |
| CC(=O)c1c(O)c(C)c(O)c(C(C)=O)c1O | > 1600 | > 1600 | > 1600 | > 1600 | > 1600 | > 1600 | – | – |
| CCCCCCCCCCCCc1c(O)cc(O)c(C(=O)CCCCCCCCCCC)c1O | > 1600 | > 1600 | > 1600 | > 1600 | > 1600 | > 1600 | – | – |
| CCCCCCCCCCCCc1c(O)c(C(C)=O)c(O)c(C(C)=O)c1O | > 1600 | > 1600 | > 1600 | > 1600 | > 1600 | > 1600 | – | – |
| Oc1ccc(C2CCc3ccc(O)cc3O2)cc1 (stereo not drawn) | – | – | > 3300 | > 3300 | – | – | > 3300 | – |
| CCCCCCCCCCCC(=O)c1cc(C)cc(C(=O)CCCCCCCCCCC)c1O | > 1600 | > 1600 | > 1600 | > 1600 | > 1600 | > 1600 | – | – |
| CCCCCCCCCCCC(=O)c1c(O)c(C)c(O)c(C(=O)CCCCCCCCCCC)c1O | 530 | > 1600 | 60 | 690 | > 1600 | 1600 | 80 | – |
